pEC50: −log10 of the molar value.
Legend:
human TRPV1 channel = human TRPV1 channel (Homo sapiens, UniProt Q8NER1); experiment: TRPV1 channel Ca2+ fluorescent; assay type: cell-based; conditions: for TRPV1 channel Ca2+ signal Emax: normalized to signal with 1 µM capsaicin, HEK293T-TRPV1 cells
[1] = tested on: nontransfected HEK293T cells; experiment: Ca2+ fluorescent assay in nontransfected HEK293T cells; assay type: cell-based; conditions: 10 µM for XLR-11, UR-144, AM1220
[2] = target: human cannabinoid type-1 (CB1) receptor (Homo sapiens, UniProt P21554); assay type: cell-based
Chain of human cannabinoid type-1 (CB1) receptor (P21554 whole entry): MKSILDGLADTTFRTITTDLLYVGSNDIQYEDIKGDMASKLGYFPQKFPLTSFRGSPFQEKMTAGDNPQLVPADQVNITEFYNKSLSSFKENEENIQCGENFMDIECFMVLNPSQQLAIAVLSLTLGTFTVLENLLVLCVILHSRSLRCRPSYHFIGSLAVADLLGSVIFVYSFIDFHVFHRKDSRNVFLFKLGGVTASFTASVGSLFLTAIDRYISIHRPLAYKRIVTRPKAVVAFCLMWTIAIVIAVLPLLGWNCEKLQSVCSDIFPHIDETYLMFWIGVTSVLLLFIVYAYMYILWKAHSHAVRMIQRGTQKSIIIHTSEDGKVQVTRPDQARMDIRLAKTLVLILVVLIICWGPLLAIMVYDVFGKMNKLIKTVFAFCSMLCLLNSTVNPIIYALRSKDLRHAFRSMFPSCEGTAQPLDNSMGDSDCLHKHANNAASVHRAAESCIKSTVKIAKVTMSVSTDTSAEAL

TRPV1 channels = conditions: read-out: EC50 for TRPV1 channel activation; ref Soethoudt et al., 2017; cited from earlier work

Chain of human TRPV1 channel (Q8NER1 whole entry): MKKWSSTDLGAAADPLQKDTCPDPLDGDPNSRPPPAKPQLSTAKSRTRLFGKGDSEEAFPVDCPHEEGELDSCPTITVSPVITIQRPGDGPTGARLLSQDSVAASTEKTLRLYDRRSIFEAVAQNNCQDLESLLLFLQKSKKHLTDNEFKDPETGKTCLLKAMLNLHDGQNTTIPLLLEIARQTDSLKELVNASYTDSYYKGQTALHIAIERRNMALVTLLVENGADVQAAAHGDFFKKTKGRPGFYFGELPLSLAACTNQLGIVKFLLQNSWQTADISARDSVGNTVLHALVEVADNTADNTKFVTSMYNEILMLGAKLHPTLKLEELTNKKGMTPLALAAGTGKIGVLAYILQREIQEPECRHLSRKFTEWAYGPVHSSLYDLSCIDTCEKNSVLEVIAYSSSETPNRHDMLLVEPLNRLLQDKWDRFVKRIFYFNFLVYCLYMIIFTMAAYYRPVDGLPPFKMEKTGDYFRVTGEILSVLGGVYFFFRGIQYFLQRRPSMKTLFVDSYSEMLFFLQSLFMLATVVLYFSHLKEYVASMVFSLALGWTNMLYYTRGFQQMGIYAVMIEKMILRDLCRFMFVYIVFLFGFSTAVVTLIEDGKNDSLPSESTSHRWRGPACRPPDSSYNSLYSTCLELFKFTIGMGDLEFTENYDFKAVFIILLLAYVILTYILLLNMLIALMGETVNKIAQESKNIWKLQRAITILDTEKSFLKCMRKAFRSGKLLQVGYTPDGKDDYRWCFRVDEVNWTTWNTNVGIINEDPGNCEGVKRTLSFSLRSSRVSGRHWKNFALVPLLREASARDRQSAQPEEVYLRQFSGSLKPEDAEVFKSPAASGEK

Compound	pEC50 (human TRPV1 channel)	TRPV1 channel Ca2+ signal Emax (human TRPV1 channel)	Ca2+ transients in nontransfected HEK293T cells [1]	CB1 receptor-mediated activation of the GIRK channels [2]	pEC50 (TRPV1 channels)
CCCCC/C=C\C/C=C\C/C=C\C/C=C\CCCC(=O)NCCO [AEA, N-arachidonoylethanolamine]	5.68	0.35	not observed	–	–
CN1CCCCC1Cn1cc(C(=O)c2cccc3ccccc23)c2ccccc21 (stereo not drawn) [AM1220]	–	0.26	not observed	–	–
CCCC(C)(C)c1ccc2c(c1)OC(C)(C)[C@@H]1CC=C(C)C[C@@H]21 [JWH-133]	–	–	–	no CB1 receptor-mediated activation	5.09
CCCCCn1cc(C(=O)C2C(C)(C)C2(C)C)c2ccccc21 [UR-144]	–	0.23	not observed	–	–
CC1(C)C(C(=O)c2cn(CCCCCF)c3ccccc23)C1(C)C [XLR-11]	–	0.39	not observed	–	–
COc1cc(CNC(=O)CCCC/C=C/C(C)C)ccc1O [capsaicin]	–	–	not observed	–	–

Source: paper PMC8374946 (European journal of pharmacology, 2021)
